Experimental findings from a melting point compilation (Tetko et al.; mined from patent text by program, amines drawn as free bases though some values may be those of a salt) are described below.

Usually melting point stands for the temperature, or range, at which the solid turns liquid. `CC(O)Cn1nc2c3c(cc([N+](=O)[O-])cc31)CCC2` (stereo not drawn): the melting point was in the range of 147 to 148 °C. As to `CN(C)CCNC(=O)c1ccc(-c2cnc3c(c2)N(C(=O)c2ccccc2)CCN3)cc1`, the melting point lay within 145 to 147 °C. Molecule `O=C1c2ccccc2-c2c1nc(Cl)c1ccccc21` returned a melting point of 242 to 244 °C.

Regarding `Fc1cccc2c(NCCc3ccc4ccccc4c3)ccnc12`, the melting point lay in the range of 173 to 174 °C.

In the case of `CCOC(=O)c1ccc(NCCCc2ccccc2)cc1`, the melting point is 80 to 83 °C. For the molecule `COc1ccc(Cl)cc1N1CCN(CCCNC(=O)c2cccc3c(=O)c(C)c(C(=O)N(C)C)oc23)CC1`, the melting point lay in the range of 151 to 153 °C. For the molecule `Cc1ccc(C2NCCS2)cc1` (stereo not drawn), the melting point lay within 92 to 93 °C.

`CCOC(=O)Cn1c2c(c3cc(Cl)c(Cl)cc31)CCN(C(=O)OC(C)(C)C)CC2` had a melting point of 138 to 140 °C. The value for `Cc1ccc(N2Cc3ccccc3P2(=O)c2ccccc2)cc1` (stereo not drawn) was 197 to 199 °C; that for `CC(=O)Oc1ccc(C=Cc2cc(OC(C)=O)c(OC(C)=O)c(OC(C)=O)c2)cc1` was 162 to 163 °C; that for `COC(=O)c1ccc(C(O)c2cnn3c(N(C)c4ccccc4)ncnc23)cc1` (stereo not drawn) was 68 °C.

In turn, `COC(=O)C(C)(C)CCCOc1cc(C)c(N2C(=O)c3ccccc3C2=O)cc1C` came in with a melting point of 109 to 111 °C. With `CS(=O)(=O)c1cccc(NC(=O)c2cnn3c(C(F)(F)F)cc(-c4ccc(C(F)(F)F)cc4)nc23)c1`, the melting point was determined as 259 °C. Under `CSCC(=O)[C@H](Cc1ccccc1)NC(=O)[C@H](CC(C)C)NC(=O)OC(C)(C)C` stands 117 to 118 °C; under `CCOC(=O)C1=C(C)NC(c2ccc(C)cc2)=C(C(=O)OCC)C1c1cccc([N+](=O)[O-])c1` (stereo not drawn), 149 to 150 °C. Regarding `CC(=O)NC(C)(C)c1ccc(-c2nc(Nc3ccc(F)cc3)ncc2C#N)cc1`, the melting point lay in the range of 212 to 216 °C.

Regarding `CCC(=O)Cc1ccc(C(=O)Nc2ccc3cc(C(C)N4CCCC4)cnc3c2C)cc1` (stereo not drawn), the melting point lay within 123 to 127 °C. Regarding `CC1=C(C(=O)c2ccc(C(=O)O)cc2)C(=O)C2C=CC=CC2C1=O` (stereo not drawn), the melting point was determined as 201 °C. The molecule `O=C(c1ccc(Cl)cc1)c1ccc([N+](=O)[O-])cc1` displayed a melting point of 97 to 98 °C. `O=C(Nc1ccc(F)cc1F)N(Cc1ccccc1)CC1(c2ccccc2)CCCC1` gave a melting point of 119 to 122 °C.

`COc1cc2c(cc1Nc1ncc(C(F)(F)F)c(N[C@H]3[C@@H](C(N)=O)[C@@H]4C=C[C@H]3C4)n1)CCN(CC(=O)N(C)C)CC2` returned a melting point of 133 to 135 °C. On to `O=C1N(Cc2ccc(Cl)cc2)c2ccccc2C1(O)c1ccoc1` (stereo not drawn), for which the melting point lay within 128 to 130 °C.

Take `NC[C@H]1CCCN1C(c1ccccc1)(c1ccccc1)c1ccccc1`: the melting point worked out at 100 °C. As to `Clc1ccc(C2Cc3cnc(Nc4ccc(CCN5CCOCC5)cc4)nc3-c3ccccc32)cc1Cl` (stereo not drawn), the melting point lay within 166 to 167 °C. As for `COC1CSC2=C(SC1)C(OC(=O)N1CCN(C)CC1)N(c1ccc3ccc(Cl)cc3n1)C2=O` (stereo not drawn), the melting point turned out to be 228 °C. The molecule `COC1(c2cc(F)cc(Sc3ccc(C(C)=O)cc3)c2)CCOCC1` showed a melting point of 141 °C. `OCc1cc2ccsc2s1` showed a melting point of 85 to 87 °C.

`O=[N+]([O-])c1ccc(CN2CCC(O)CC2)cc1` registered a melting point of 114 to 115 °C.

Turning to `CNC(=O)c1cccc(CNc2n[nH]c3ncnc(Nc4cccc(Cl)c4)c23)c1`, the melting point fell in the range of 252 to 254 °C. On to `c1ccc(C(c2ccccc2)N2CCN(CCCCCCNc3ccc4ncnn4n3)CC2)cc1`, for which the melting point is 130 to 132 °C. Under `CN(C)CCNc1c2c(nc3ccccc13)CCCC2O` (stereo not drawn) stands 135 to 138 °C; under `O=C(NCCCCCCCCc1ccccc1)c1cc(-c2cccc(C(F)(F)F)c2)c(OCCO)c(-c2cccc(C(F)(F)F)c2)c1`, 143 to 145 °C. Under `O=C(Nc1cc([N+](=O)[O-])ccc1F)C(F)(F)F` stands 112 to 113 °C.

The molecule `Oc1ccc(Nc2nccc(-c3ccncc3)n2)cc1` displayed a melting point of 268 to 270 °C. Molecule `C=CC(c1ccccc1)c1cc(C)c2c(c1O)C(=O)CC2` (stereo not drawn) returned a melting point of 131 to 132 °C. Molecule `N#CCCCCCCc1nc(-c2ccc(Cl)cc2)c(-c2ccc(Cl)cc2)o1` had a melting point of 64 °C. The value for `CCCOC1(C=O)C=CCC(OC)(N2CCC(c3noc4cc(F)ccc34)CC2)C1O` (stereo not drawn) was 107 to 108 °C; that for `C=CCOC(=O)CSc1cccc(NC(=O)NCC(=O)N(CC(=O)OC(C)(C)C)c2ccccc2C(=O)c2ccccc2)c1` was 155 to 157 °C.

With `O=c1c(Cl)c(Cl)cnn1C1OCCCC1Cl` (stereo not drawn), the melting point lay within 109 to 110 °C. Regarding `O=C(Cc1ccccc1Cl)Nc1ccc(C(=O)Oc2ccccc2)c(Cl)c1`, the melting point lay within 160 to 163 °C.

For the molecule `CN(C(=O)c1ccc2nonc2c1)C1CCC(=NO)CC1` (stereo not drawn), the melting point lay in the range of 197 to 198 °C. `O=C(O)Cc1cccc2c1NC(=O)C2` showed a melting point of 234 to 236 °C.

Consider `CC(=O)Oc1ccccc1C(=O)Nc1cc(Cl)c(OC(C)=O)c(Cl)c1`, for which the melting point fell in the range of 154 to 156 °C. `CCOC(=O)c1nc(-c2ccc(Cl)cc2)c(F)c(N)c1Cl`: the melting point fell in the range of 103 to 104 °C. Molecule `NC(=NO)c1ccc(-c2ccc(N)cc2)o1` displayed a melting point of 180 to 183 °C. As to `Cn1c(C(F)(F)F)ccc(-c2c(F)cc(Cl)c3oc(C(Br)Br)cc23)c1=O`, the melting point was 107 to 109 °C.

Molecule `Cc1cccc(N2CCOC2=O)c1COc1cccn2c(C=O)c(C)nc12` gave a melting point of 242 to 244 °C.

As to `CN(C)C1CC2=CNC=C3C=C(C(N)=O)OCC1=C32` (stereo not drawn), the melting point was in the range of 182 to 183 °C. The value for `Cc1c(C(=O)C23CC4CC(CC(C4)C2)C3)oc2cc(F)ccc12` was 107 to 109 °C. Consider `CCOC(=O)c1sc2nc(CBr)c(CC)c(=O)n2c1C`, for which the melting point fell in the range of 146 to 148 °C.

`Nc1ccc(OC(F)(F)F)cc1` had a melting point of 63.5 °C.

In turn, `COc1cc2nc(N3CCN(c4ccnc(Cl)n4)CC3)nc(N)c2cc1OC` came in with a melting point of 266 °C.

Turning to `CCOC(=O)Nc1c(C(=O)OCC)oc2cc(OCc3ccccc3)ccc12`, the melting point was determined as 100 °C. The value for `Cc1oc(-c2ccccc2)nc1COc1ccc(N)cn1` was 106 to 107 °C; that for `CCOC(=O)C(=C1SC(=S)N(CC(=O)O)C1=O)c1csc(NC(=S)NC(=O)c2ccccc2)n1` was 233 to 235 °C; that for `OC1CCCC2C3CCCCCCC3C12` (stereo not drawn) was 142 °C.

The molecule `COC(=O)NC12CC=CCC1CCc1ccc(OC)cc12` (stereo not drawn) gave a melting point of 120 to 122 °C. The value for `COc1ccc2cc(-c3ccc(-n4nc(C)nc4C)c(Cl)c3)c(=O)oc2c1` was 219 °C; that for `Cc1ccc(-c2cnc([C@H]3CC[C@H](C#N)CC3)nc2)cc1` was 172 °C. Under `COC(=O)c1ccc(-c2ccncc2)c(C)c1` stands 70 to 71 °C. `O=C(c1ccccc1)c1cccc2c(CC(C(=O)O)C(=O)O)c[nH]c12` returned a melting point of 188 to 189 °C. Turning to `CCC(O)CN1CCC(CCN2CCN(c3cccc(Cl)c3Cl)CC2)CC1` (stereo not drawn), the melting point is 94 °C. Under `CCCCCCCCCCCCCCCCOCC(CNS(=O)(=O)CCCCl)COC` (stereo not drawn) stands 44 to 46.5 °C; under `CN(CCC(=O)C(Cc1ccccc1)NC(=O)c1ccccc1)C(=O)N1CCCC1C(=O)O` (stereo not drawn), 38 to 68 °C; under `Cc1cccc2c(-c3ccccc3)onc12`, 73 to 75 °C. As to `COC(=O)CCC(=O)Nc1cccc(OCc2cc3ccccc3o2)c1`, the melting point was 112 to 113 °C.

For `Cc1ccc(-c2nc(=S)n(Cc3ccccc3)[nH]2)cc1`, the melting point lay within 234 to 235 °C. As for `CC1(Cn2nc(-c3ccccc3)oc2=O)Cn2cc([N+](=O)[O-])nc2O1` (stereo not drawn), the melting point lay within 225 to 227 °C.

`CCN(CCCc1c[nH]c2c(OC)cccc12)C1COc2c(F)ccc(C(N)=O)c2C1` (stereo not drawn) yielded a melting point of 148 to 153 °C.

Consider `O=C(O)Cc1cc(C(=O)c2ccccc2Cl)ccc1O`, for which the melting point was 148 °C. With `CC1=C(CC#N)CCc2ccccc21`, the melting point was in the range of 48 to 49 °C. For `Oc1ccc([C@H]2OCCN3[C@@H](CCc4ccccc4)CC[C@H]23)cc1` (racemic), the melting point fell in the range of 170 to 172 °C.

`Cc1cc(F)ccc1C1(c2ccc(S(C)(=O)=O)cc2C)CSC=C1c1ccc(S(C)(=O)=O)cc1` (stereo not drawn) had a melting point of 158 to 160 °C. Under `CC(C)c1cccc(C(C)C)c1NC(=O)NCC1(Nc2ccc(I)cc2)CCCC1` stands 176 °C; under `CCCCCCOc1ccc(C(=O)Nc2ccc(C(=O)O)cc2)cc1C12CC3CC(CC(C3)C1)C2`, 256 to 257 °C; under `CC(C)CN1C(=O)C(C)(C)C(=O)Nc2cc(C=O)ccc21`, 154 to 155 °C. Under `COc1ccc2cc(-c3cc4c(cc3N)OCO4)ccc2c1` stands 130 to 132 °C; under `NC(c1ccc2ccccc2c1)P(O)O` (stereo not drawn), 237 to 239 °C. With `COCC1CN(c2cc3c(cc2F)c(=O)c(C(=O)O)cn3C2CC2)CCN1` (stereo not drawn), the melting point fell in the range of 215 to 216 °C.

The molecule `CCOC(=O)c1cc(O)ccc1CCc1cc2cc(C#N)ccc2o1` registered a melting point of 133 to 135 °C.

On to `CS(=O)(=O)N1CC2(CCN(C(=O)Nc3cnc(-c4ccccc4)cn3)CC2)c2ccccc21`, for which the melting point fell in the range of 201 to 203 °C. As for `N#CC1(c2ccc(Cl)c(Cl)c2)CC(Cl)=C(Cl)N1CCO` (stereo not drawn), the melting point lay in the range of 143 to 145 °C. The value for `CC(=O)NC(CC=Cc1ccccc1)(COC(C)=O)COC(C)=O` was 88 to 90 °C; that for `COC(=O)C(O)C1OC(n2cnc3c(N)ncnc32)C(O)C1O` (stereo not drawn) was 215 to 217 °C. The value for `COc1ccc(N2C(=O)C(Oc3ccccc3)C2c2ccc(C(=O)O)cc2)cc1` (stereo not drawn) was 246 °C; that for `CCCCCCCCCCNC(=O)c1ccc(N(CC(=O)OC)CC(=O)OC)cc1` was 104 to 106 °C. Molecule `COc1ccc(-c2cc(C(=O)O)c(=O)n(CC3CCCC3)n2)cc1F` came in with a melting point of 159 to 161 °C.

`O=C(O)c1cccc(-c2cc3c(Nc4cccc(Cl)c4)ncnc3[nH]2)c1`: the melting point was > 300 °C.
